From PubChem BioAssay AID330 (DTP/NCI, 2004)
Values joined by “and” are separate entries in the source; they are usually repeats but may differ in a detail not shown here. Equal entries are not always repeated. Toxic doses and inconclusive results are not listed. Square brackets hold non-standard residues; d marks the D form. Peptide text beside a SMILES is read from it. * marks the point of attachment. ξ: configuration not given here. Cbz = O=C(OCc1ccccc1)*; Bn = c1ccc(C*)cc1; ξC = NC(CS)C(=O)O

Tested on: P388 leukemia ip, CD2F1 mice, survival T/C
Assay: NCI In Vivo Anticancer Drug Screen. Data for tumor model P388 Leukemia (intraperitoneal) in CD2F1 (CDF1) mice
Conditions: endpoint: median survival time, higher = longer survival
Method in brief: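 Mice carrying the transplanted tumor received test compound or vehicle. Survival was recorded in each group, and the value is the treated-group measurement divided by that of the vehicle-treated control group.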

[1] = dose: 50.0 mg/kg/injection, schedule: Q01DX005 (ip), vehicle: saline with Tween-80
[2] = dose: 50.0 mg/kg/injection, schedule: Q01DX009 (ip), vehicle: Klucel (hydroxypropylcellulose) (HPC)
[3] = dose: 50.0 mg/kg/injection, schedule: Q01DX009 (ip), vehicle: saline with Tween-80
[4] = dose: 100.0 mg/kg/injection, schedule: Q01DX009 (ip), vehicle: saline with Tween-80
[5] = dose: 100.0 mg/kg/injection, schedule: Q01DX009 (ip), vehicle: saline
[6] = dose: 200.0 mg/kg/injection, schedule: Q01DX009 (ip), vehicle: saline with Tween-80
[7] = dose: 60.0 mg/kg/injection, schedule: Q01DX005 (ip), vehicle: saline with Tween-80
[8] = dose: 120.0 mg/kg/injection, schedule: Q01DX005 (ip), vehicle: saline with Tween-80
[9] = dose: 240.0 mg/kg/injection, schedule: Q01DX005 (ip), vehicle: saline with Tween-80
[10] = dose: 12.5 mg/kg/injection, schedule: Q01DX005 (ip), vehicle: saline with Tween-80

NC(=O)CCCSC1=CC(=O)c2ccccc2C1=O
T/C (dose: 3.12 mg/kg/injection, schedule: Q04DX002 (ip), vehicle: saline with Tween-80): 104 % of control | T/C (dose: 6.25 mg/kg/injection, schedule: Q04DX002 (ip), vehicle: saline with Tween-80): 101 % of control | T/C (dose: 12.5 mg/kg/injection, schedule: Q04DX002 (ip), vehicle: saline with Tween-80): 111 % of control and 114 % of control

COc1cc2c(c(O)c1OC)-c1c(cc(OC)c(OC)c1OC)CC(C)C(C)C2 (stereo not given)
T/C (dose: 11.25 mg/kg/injection, schedule: Q01DX009 (ip), vehicle: saline + alcohol): 100 % of control and 95 % of control | T/C (dose: 11.3 mg/kg/injection, schedule: Q01DX009 (ip), vehicle: saline + alcohol): 106 % of control | T/C (dose: 22.5 mg/kg/injection, schedule: Q01DX009 (ip), vehicle: saline + alcohol): 101 % of control and 115 % of control and 96 % of control | T/C (dose: 45.0 mg/kg/injection, schedule: Q01DX009 (ip), vehicle: saline + alcohol): 106 % of control and 121 % of control and 97 % of control | T/C (dose: 90.0 mg/kg/injection, schedule: Q01DX009 (ip), vehicle: saline + alcohol): 113 % of control and 121 % of control and 92 % of control | T/C (dose: 180.0 mg/kg/injection, schedule: Q01DX009 (ip), vehicle: saline + alcohol): 96 % of control

COc1ccc(CN(CCCCCCN(Cc2ccc(OC)cc2)CC23CC4CC(CC(C4)C2)C3)CC23CC4CC(CC(C4)C2)C3)cc1
T/C (dose: 100.0 mg/kg/injection, schedule: Q04DX002 (ip), vehicle: saline with Tween-80): 98 % of control | T/C (dose: 200.0 mg/kg/injection, schedule: Q04DX002 (ip), vehicle: saline with Tween-80): 94 % of control | T/C (dose: 400.0 mg/kg/injection, schedule: Q04DX002 (ip), vehicle: saline with Tween-80): 94 % of control

Cc1onc(-c2c(Cl)cccc2Cl)c1C(=O)SC1=NC(C)N2C(SC(=O)c3c(-c4c(Cl)cccc4Cl)noc3C)=NC(C)N12 (stereo not given)
T/C [1]: 90 % of control | T/C (dose: 100.0 mg/kg/injection, schedule: Q01DX005 (ip), vehicle: saline with Tween-80): 87 % of control

N=c1c2ccccc2c2ccccc2n1O
T/C (dose: 50.0 mg/kg/injection, schedule: Q01DX001 (ip), vehicle: saline sonified): 110 % of control | T/C (dose: 100.0 mg/kg/injection, schedule: Q01DX001 (ip), vehicle: saline sonified): 90 % of control | T/C (dose: 200.0 mg/kg/injection, schedule: Q01DX001 (ip), vehicle: saline sonified): 100 % of control

O=C(CNC(=O)OCc1ccccc1)NCC(=O)NC(CSCc1ccccc1)C(=O)O (stereo not drawn) (Cbz-Gly-Gly-[ξC](Bn)-OH)
T/C (dose: 50.0 mg/kg/injection, schedule: Q01DX005 (ip), vehicle: Klucel (hydroxypropylcellulose) (HPC)): 101 % of control | T/C (dose: 100.0 mg/kg/injection, schedule: Q01DX005 (ip), vehicle: Klucel (hydroxypropylcellulose) (HPC)): 100 % of control | T/C (dose: 200.0 mg/kg/injection, schedule: Q01DX005 (ip), vehicle: Klucel (hydroxypropylcellulose) (HPC)): 100 % of control

CS(=O)(=O)OCCN(CCOS(C)(=O)=O)c1ccc(C=Nc2ccc(-c3csc(COc4ccccc4)n3)cc2)cc1
T/C (dose: 12.5 mg/kg/injection, schedule: Q01DX009 (ip), vehicle: Klucel (hydroxypropylcellulose) (HPC)): 150 % of control and 151 % of control | T/C (dose: 25.0 mg/kg/injection, schedule: Q01DX009 (ip), vehicle: Klucel (hydroxypropylcellulose) (HPC)): 151 % of control and 154 % of control and 164 % of control | T/C (dose: 25.0 mg/kg/injection, schedule: Q01DX009 (oral), vehicle: Klucel (hydroxypropylcellulose) (HPC)): 101 % of control and 104 % of control | T/C [2]: 162 % of control and 164 % of control and 166 % of control | T/C (dose: 50.0 mg/kg/injection, schedule: Q01DX009 (oral), vehicle: Klucel (hydroxypropylcellulose) (HPC)): 101 % of control and 106 % of control | T/C (dose: 100.0 mg/kg/injection, schedule: Q01DX009 (oral), vehicle: Klucel (hydroxypropylcellulose) (HPC)): 102 % of control and 108 % of control | T/C (dose: 200.0 mg/kg/injection, schedule: Q01DX009 (oral), vehicle: Klucel (hydroxypropylcellulose) (HPC)): 107 % of control | T/C (dose: 400.0 mg/kg/injection, schedule: Q01DX009 (ip), vehicle: Klucel (hydroxypropylcellulose) (HPC)): 112 % of control | T/C (dose: 400.0 mg/kg/injection, schedule: Q01DX009 (oral), vehicle: Klucel (hydroxypropylcellulose) (HPC)): 109 % of control | T/C (dose: 800.0 mg/kg/injection, schedule: Q01DX009 (oral), vehicle: Klucel (hydroxypropylcellulose) (HPC)): 109 % of control

CC1=C(C)OP(=O)(O)O1
T/C [3]: 100 % of control | T/C (dose: 50.0 mg/kg/injection, schedule: Q01DX009 (ip), vehicle: saline): 100 % of control | T/C [4]: 100 % of control | T/C [5]: 96 % of control | T/C [6]: 95 % of control | T/C (dose: 200.0 mg/kg/injection, schedule: Q01DX009 (ip), vehicle: saline): 100 % of control

CCO[Si](CCCCl)(OCC)OCC
T/C [2]: 100 % of control | T/C (dose: 100.0 mg/kg/injection, schedule: Q01DX009 (ip), vehicle: Klucel (hydroxypropylcellulose) (HPC)): 106 % of control | T/C (dose: 200.0 mg/kg/injection, schedule: Q01DX009 (ip), vehicle: Klucel (hydroxypropylcellulose) (HPC)): 118 % of control

CCSc1nc(C=O)c(Cc2ccc(Br)cc2)c(=O)[nH]1
T/C (dose: 100.0 mg/kg/injection, schedule: Q04DX003 (ip), vehicle: saline with Tween-80): 110 % of control | T/C (dose: 200.0 mg/kg/injection, schedule: Q04DX003 (ip), vehicle: saline with Tween-80): 107 % of control | T/C (dose: 400.0 mg/kg/injection, schedule: Q04DX003 (ip), vehicle: saline with Tween-80): 88 % of control

CC(C)c1cccc(O)c1O
T/C [5]: 97 % of control

S=C(SCc1nc(-c2ccc(Cl)cc2)no1)N1CCSCC1
T/C [7]: 97 % of control | T/C [8]: 92 % of control | T/C [9]: 105 % of control

[Cl][Sn]([c]1ccccc1)[c]1ccccc1
T/C (dose: 1.8 mg/kg/injection, schedule: Q03HX015 (ip), vehicle: saline): 150 % of control | T/C (dose: 2.7 mg/kg/injection, schedule: Q03HX015 (ip), vehicle: saline): 152 % of control | T/C (dose: 3.12 mg/kg/injection, schedule: Q01DX009 (ip), vehicle: saline): 86 % of control | T/C (dose: 4.0 mg/kg/injection, schedule: Q03HX015 (ip), vehicle: saline): 163 % of control | T/C (dose: 5.3 mg/kg/injection, schedule: Q01DX005 (ip), vehicle: saline): 154 % of control | T/C (dose: 12.0 mg/kg/injection, schedule: Q01DX005 (ip), vehicle: saline): 163 % of control | T/C (dose: 12.5 mg/kg/injection, schedule: Q01DX009 (ip), vehicle: saline): 163 % of control | T/C (dose: 12.5 mg/kg/injection, schedule: Q04DX003 (ip), vehicle: saline): 114 % of control | T/C (dose: 25.0 mg/kg/injection, schedule: Q01DX009 (ip), vehicle: saline): 198 % of control | T/C (dose: 100.0 mg/kg/injection, schedule: Q04DX003 (ip), vehicle: saline): 154 % of control

O=c1cc(-c2ccccc2)nc2cc(-c3ccco3)[nH]n12
T/C [7]: 102 % of control | T/C [8]: 107 % of control | T/C [9]: 111 % of control

Cc1cc(N(CCCl)CCCl)ccc1C=Nc1ccccc1C(=O)O
T/C (dose: 25.0 mg/kg/injection, schedule: Q01DX009 (ip), vehicle: saline with Tween-80): 117 % of control | T/C [3]: 115 % of control | T/C [6]: 150 % of control

C(=C(\CCc1ccccn1)c1ccccn1)/c1cccnc1
T/C (dose: 100.0 mg/kg/injection, schedule: Q01DX001 (ip), vehicle: saline): 100 % of control | T/C (dose: 200.0 mg/kg/injection, schedule: Q01DX001 (ip), vehicle: saline): 101 % of control | T/C (dose: 400.0 mg/kg/injection, schedule: Q01DX001 (ip), vehicle: saline): 104 % of control

CC1(C)CCCc2conc21
T/C [3]: 96 % of control | T/C [4]: 101 % of control | T/C [6]: 96 % of control

Cc1c(C(N)=O)c2ccccc2c2ccccc12
T/C [10]: 109 % of control | T/C (dose: 25.0 mg/kg/injection, schedule: Q01DX005 (ip), vehicle: saline with Tween-80): 95 % of control | T/C [1]: 93 % of control and 95 % of control

C/C(=N\NC(=S)N1CCC(c2ccccc2)CC1)c1ncccn1
T/C [10]: 110 % of control | T/C [1]: 169 % of control

CC(=O)OCC12CCC(C)=CC1O[C@H]1[C@@H](OC(C)=O)[C@H](OC(C)=O)[C@]2(C)[C@@]12CO2 (stereo not given in full)
T/C (dose: 0.2 mg/kg/injection, schedule: Q01DX009 (ip), vehicle: saline + alcohol): 115 % of control | T/C (dose: 0.8 mg/kg/injection, schedule: Q01DX009 (ip), vehicle: saline + alcohol): 173 % of control | T/C (dose: 2.0 mg/kg/injection, schedule: Q04DX003 (ip), vehicle: saline + alcohol): 120 % of control

COc1cc(CC2C(=O)OCC2Cc2cc(OC)c(O)c(C(CO)C(O)c3ccc(O)c(OC)c3)c2)ccc1O (stereo not given)
T/C (dose: 5.0 mg/kg/injection, schedule: Q01DX009 (ip), vehicle: saline): 96 % of control | T/C (dose: 10.0 mg/kg/injection, schedule: Q01DX009 (ip), vehicle: saline): 107 % of control | T/C (dose: 20.0 mg/kg/injection, schedule: Q01DX009 (ip), vehicle: saline): 105 % of control | T/C (dose: 40.0 mg/kg/injection, schedule: Q01DX009 (ip), vehicle: saline): 102 % of control
